In general, EC50 refers to the midpoint of the concentration-response curve. For orientation: IC50 means the midpoint of a concentration-inhibition curve. Read a low IC50 as greater potency in that assay.

The test system of the experiment is CEM cells HIV-1 protection, formazan growth assay. In words: NCI AIDS Antiviral Assay. Particulars: for IC50: measured here: growth of uninfected CEM cells. A digest of the protocol:
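Five concentrations of each compound were applied to infected and uninfected human CEM cells. Protection from HIV-1 was judged from growth measured with a soluble formazan assay.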

Molecules are shown by their SMILES. Where “and” joins values, the source holds several entries; their conditions need not be identical. Identical values can stand only once. Calls of active or inactive are those of the source.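 How the source made its calls: active means compounds giving half or more protection of infected cells from virus-caused growth loss, again on retest; inactive means the rest.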

For `COP(C)(=O)C(Cc1c[nH]c2ccccc12)NC(=O)OCc1ccccc1` (stereo unspecified), the EC50 is over 200 µM and the IC50 was over 200 µM.

As to `O=C1c2cccc3cccc(c23)C(=O)N1CCO`, the EC50 is over 200 µM and the IC50 came to 13.8 µM.

On to `COc1cc(CC(=O)O)c(C(=O)c2ccc([N+](=O)[O-])cc2)cc1OC`, for which the EC50 is over 200 µM and the half-inhibitory concentration (IC50) was over 200 µM.

Turning to `CCn1c(=O)c(N=O)c(N)n(CC(C)C)c1=O`, the EC50 was over 200 µM and the half-maximal inhibitory concentration (IC50) worked out at 174 µM.

Take `O=C1c2sccc2[C@H](NC(=O)C(F)(F)F)[C@@H]1Cl`: the EC50 is over 200 µM and the IC50 is over 200 µM.

As for `Nc1ccn(C2OC(C(O)CO)C(O)C2O)c(=O)n1` (stereo unspecified), the outcome was inactive.

Turning to `CC(C)(C)C(=O)OC(N)/C=C/c1ccccc1` (stereo unspecified), the EC50 is over 200 µM and the half-inhibitory concentration (IC50) is over 200 µM.

As for `CC(=O)Nc1ccc(C(=O)CCC(NC(C)=O)(C(=O)O)C(=O)O)cc1`, the EC50 is over 200 µM and the IC50 is over 200 µM.

`O=C1c2ccccc2C(=O)c2c1ccc(O)c2O`: the EC50 is over 72.4 µM and the half-inhibitory concentration (IC50) came to 42.7 µM.

On to `O=C1c2cc3c(cc2CC12Cc1ccc4c(c1C2=O)CCC4)CCCC3` (stereo unspecified), for which the EC50 is over 200 µM and the IC50 is over 200 µM.

`O=C(NS(=O)(=O)Nc1ccccc1)OC1CCCC1`: the EC50 is over 200 µM and the half-maximal inhibitory concentration (IC50) is over 200 µM.

On to `COc1ccc(-c2[nH]c(=O)n(C3OC(CO)C(O)C(O)C3O)c(=O)c2C#N)cc1` (stereo unspecified), for which the EC50 is > 200 µM and 186 µM; the IC50 is over 200 µM.

As for `Cn1c(=O)n2n(c1=O)C1C(=CC2)C2C=CC1n1c(=O)n(C)c(=O)n12` (stereo unspecified), the EC50 was over 200 µM and the IC50 was over 200 µM.

`O=c1[nH]c(Nc2nc3ccccc3[nH]2)nc(O)c1-c1ccccc1`: the EC50 is 162 µM and the IC50 was over 200 µM.

For `CC(C)n1nnnc1-c1ccccc1`, the EC50 was over 200 µM and the IC50 is over 200 µM.

On to `COc1cc(C2=C(c3cc(OC)c4ccccc4c3OC)C(=O)c3ccccc3C2=O)c(OC)c2ccccc12`, for which the EC50 was over 100 µM and the IC50 was over 100 µM.

As for `CN=C1Nc2ccc(Cl)cc2C(c2ccccc2)=NN1C`, the EC50 was over 120 µM and the half-inhibitory concentration (IC50) was 93.3 µM.

On to `c1cc2cc(c1)CN1CCNCCN(CCNCC1)Cc1cccc(c1)CN1CCNCCN(CCNCC1)C2`, for which the EC50 is over 50.1 µM and the IC50 was over 50.1 µM.

For the compound `N/N=C(\c1ccccc1)c1cccs1`, the EC50 is over 200 µM and the half-inhibitory concentration (IC50) was over 200 µM.

Take `CC(C)N1CSC(=S)N(Cc2ccccc2)C1`: the EC50 is over 37.2 µM and the concentration for half-maximal inhibition (IC50) amounted to 32.4 µM.

Regarding `c1cnc(NCCSSCCNc2ncccn2)nc1`, the EC50 is over 200 µM and the 50% inhibitory concentration (IC50) worked out at 38 µM.

`CCCCCCCCCCCCCCCCCC(=O)OCCO`: the outcome was inactive.

`c1ccc2sc(NCCSSCCNc3nc4ccccc4s3)nc2c1`: the EC50 is over 200 µM and the IC50 amounted to 23.4 µM.

Regarding `COc1ccc2nc3ccccc3c(NCCC[N+](C)(C)[O-])c2c1[N+](=O)[O-]`, the EC50 is over 200 µM and the 50% inhibitory concentration (IC50) was determined as 14.1 µM.

With `CC(Nc1ccc(Cl)cc1)c1ccncc1` (stereo unspecified), the EC50 is over 200 µM and the 50% inhibitory concentration (IC50) came to 72.4 µM.

Regarding `CC1(C)O[C@]2(C)CC[C@@H]1[C@@H](O)[C@@H]2N1CCCCC1`, the EC50 is over 380 µM and the IC50 was over 380 µM.

In the case of `CC1CCCN(CC(O)CN2CCN(CC(O)CN3CCCC(C)C3)CC2)C1` (stereo unspecified), the EC50 is over 13.2 µM and the IC50 was over 13.2 µM.

Take `CC(=O)CC(=O)Nc1ccccc1C(F)(F)F`: the EC50 is over 204 µM and the half-inhibitory concentration (IC50) is over 204 µM.

As for `CCCCCCCCCCCC(O)=C1C(=O)CC(O)CC1=O` (stereo unspecified), the EC50 was over 17 µM and the half-inhibitory concentration (IC50) is over 17 µM.

As to `CCC(C)[N-]c1cccc[n+]1[O-].CCC(C)[N-]c1cccc[n+]1[O-].[Cu+2]` (stereo unspecified), the EC50 was over 200 µM and the half-maximal inhibitory concentration (IC50) was 83.2 µM.

`c1ccc(Cc2nc3ccccc3[nH]2)cc1`: the EC50 was over 34.7 µM and the IC50 was over 34.7 µM.

Take `CC(=O)N1C(=O)C(C)(C2=CC(=O)c3ccccc3C2=O)c2ccc(Br)cc21` (stereo unspecified): the EC50 was over 200 µM and the half-maximal inhibitory concentration (IC50) was 2.29 µM.

Turning to `Cc1cc(C)cc(Sc2c([N+](=O)[O-])ncn2C)c1`, the EC50 was over 27.5 µM and the IC50 was found to be 16.2 µM.

For `N#Cc1cc([N+](=O)[O-])ccc1NC(=O)/C(=N\NC(=O)c1ccncc1)C(c1cnc2ccc([N+](=O)[O-])cc2n1)[N+](=O)[O-]` (stereo unspecified), the EC50 was over 45.7 µM and the half-maximal inhibitory concentration (IC50) was found to be 8.71 µM.

Take `OC(c1ccccc1)(c1cccnc1)C(O)(c1ccccc1)c1cccnc1` (stereo unspecified): the EC50 was over 200 µM and the IC50 was over 200 µM.

Turning to `O=C1CSC(=Nc2ccccc2)N1c1ccc(-n2c(-c3ccc(N=Cc4ccc(Cl)cc4)cc3)nc3ccccc3c2=O)cc1`, the EC50 was over 56.2 µM and the IC50 was over 56.2 µM.

Regarding `c1ccc(-c2nnc3sc4ccccc4n23)cc1`, the EC50 is over 200 µM and the IC50 is over 200 µM.

For `O=c1[nH]n(Cc2ccccc2)c2ccc([N+](=O)[O-])cc12`, the EC50 is over 200 µM and the IC50 was 25.7 µM.

As to `CCCCCCN1CCc2c(C)c(C#N)c3nc4ccccc4n3c21`, the EC50 is over 100 µM and the concentration for half-maximal inhibition (IC50) was 17.8 µM.

With `c1ccc2c3nnc(c2c1)SCCSCCSc1nnc(c2ccccc12)SCCSCCS3`, the EC50 is over 200 µM and the concentration for half-maximal inhibition (IC50) is over 200 µM.

Consider `O=S(=O)(Cc1ccccc1)c1nnc(S(=O)(=O)c2ccc(Cl)cc2)s1`, for which the EC50 is over 200 µM and the half-inhibitory concentration (IC50) was determined as 5.5 µM.

With `CCO/C=C1\C(=O)N(C(C)=O)c2cc(OC)c(OC)cc21`, the EC50 was over 200 µM and the IC50 worked out at 26.9 µM.

For the compound `CC(C)OP(=O)(CP(=O)(OC(C)C)OC(C)C)OC(C)C.[CH3][Sn]([Br])([Br])[Br]`, the EC50 was over 347 µM and the IC50 was over 347 µM.

Regarding `Cc1cc(C)nc(NS(=O)(=O)c2ccc(Nc3c4ccccc4nc4c(C(=O)NNCCO)cccc34)cc2)n1`, the EC50 was over 200 µM and the half-maximal inhibitory concentration (IC50) turned out to be 33.1 µM.

Turning to `CC1(Br)CC2OC3(Br)C=CC(C)(O)C2(CC1=O)C3(C)C` (stereo unspecified), the result was inactive.

Consider `COc1ccc(CC2COC(=O)[C@@H]2Cc2ccccc2)cc1OC` (stereo partly specified), for which the EC50 is over 200 µM and the IC50 worked out at 75.9 µM.

With `O=S1c2ccccc2N=C(c2cccc3ccccc23)CC1c1cccc2ccccc12` (stereo unspecified), the EC50 was over 60.3 µM and the concentration for half-maximal inhibition (IC50) is over 60.3 µM.

Consider `CCCCCC/C(CC(=O)CCC(=O)NCCc1ccccc1)=N\NC(=O)c1ccc2ccccc2c1O`, for which the EC50 was over 251 µM and the IC50 is 14.5 µM.

Regarding `C=C(c1cccn1S(=O)(=O)c1ccccc1)c1cccn1S(=O)(=O)c1ccccc1`, the EC50 was over 100 µM and the half-inhibitory concentration (IC50) was 25.7 µM.

As for `CCN(CC)CCC(=O)N1CCc2c([nH]c3ccccc23)C1c1cccnc1` (stereo unspecified), the EC50 was over 95.5 µM and the IC50 is over 95.5 µM.

Compound `CCCC(=O)OCc1cc(=O)n(C)c2c3c4c(cc12)c(C)cc(=O)n4CO3` came in with a 50% effective concentration (EC50) of over 174 µM and an IC50 of 6.76 µM.

As for `C[CH2][Sn]([CH2]C)([O]C(=O)c1ccccc1F)[O][Sn]([CH2]C)([CH2]C)[O]C(=O)c1ccccc1F`, the EC50 was over 39.8 µM and the IC50 came to 25.1 µM.

The values are drawn from PubChem BioAssay AID179 (DTP/NCI, 2004).
